Assay results: patent US20220142161A1, “METHOD OF IMPROVING THE GROWTH AND/OR THE YIELD OF PLANTS GROWN ON AGRICULTURALLY OR HORTICULTURALLY UTILIZED SUBSTRATES BY APPLYING A NITRICATION INHIBITOR ADDED TO THE IRRIGATION SYSTEM” (BASF SE, priority 2019, published 2022)

Experiments:
[1] = test system: nitrification in sandy loam soil; assay: Leaching experiment in soil column with simulated drip irrigation; conditions: AS 90 mg N; NI/N (NH4) 0.8%; 9 days at 20° C., then about 43 mm precipitation; lower value = better inhibition
Experimental: (§1) In the examples a standardized sandy loam soil with coarse and very light texture was used.
100 g of air dried soil was filled in a 150 mL free draining column made of glass. Soil was moistened with deionized water to 50% of its water holding capacity. Then, the filled column was incubated for 24 h at 20° C. A solution of ammonium sulfate and optionally the nitrogen inhibitor in deionized water was deposited on the soil by means of a pipette to simulate drip irrigation. The amount of ammonium sulfate corresponds to 90 mg of nitrogen (N). The columns were then incubated for 9 days at 20° C. Then, deionized water was dripped to the soil corresponding to a precipitation of about 43 mm. Thereafter, the water was removed from the soil by applying a negative pressure until the moisture in the soil was 50% of its water holding capacity. The removed water (percolate) was collected and analyzed with regard to the total quantity of inorganic nitrogen (NH4 and NO3) as described for example 1. Since NH4 is more strongly bound to the soil compared to NO3 a lower nitrogen value indicates a better inhibition of nitrification.

[2] = test system: nitrification in sandy loam soil (soil microbial biomass); assay: Soil incubation with simulated drip irrigation: NH4 recovery and nitrification inhibition; conditions: for % NH4 recovery of applied NH4: 20° C., ammonium sulfate; for % nitrification inhibition: calculated according to equation 1
Experimental: as §1
For each test, three 500 ml plastic bottles were filled with 100 g of air dried soil each. Soil was moistened with deionized water to 50% of its water holding capacity. Then, the soil was incubated for two weeks at 20° C. to activate the microbial biomass. Ammonium sulfate was dissolved in deionized water in an amount corresponding to a nitrogen concentration of 10 g/L and supplemented by the desired amount of nitrogen inhibitor in an amount given in table 1. To each bottle 1 ml of the test solution was added by dripping the test solution with a pipette to the soil to simulate drop irrigation. Bottles were loosely capped to avoid contamination by dirt but to allow air exchange. The bottles were incubated at 20° C. for 0 to 42 days.
For determining the nitrogen content in the soil after incubation, to each bottle 300 mL of a 1% by weight solution of potassium sulfate in deionized water was added and the bottle was shaken for 2 h in a horizontal shaker at 150 rpm. Then the whole content of the bottle was filtered through a paper filter (MN 807 of Macherey-Nagel) and the filtrate was analyzed photometrically at 550 nm with respect to ammonium and nitrate by means of an auto analyzer AA11 of Merck.
Inhibition of nitrification was calculated by the following equation 1 (Bohland equation, DD 123771):
N (NO3) 1=Concentration of nitrogen contributed by NO3 without NI at the end of incubation
N (NO3) […]=Concentration of nitrogen contributed by NO3 with NI at the end of incubation
N (NO3) […]=Concentration of nitrogen contributed by NO3 at the beginning of incubation
The Examples were carried out in two separate series 1 and 2. All results are averages of 3 replications.

[3] = first series, DAT14, NI/N (NH4) 0.8%
[4] = first series, DAT28, NI/N (NH4) 0.8%
[5] = first series, DAT42, NI/N (NH4) 0.8%
[6] = second series, DAT7, NI/N (NH4) 0.4%
[7] = second series, DAT14, NI/N (NH4) 0.4%
[8] = second series, DAT28, NI/N (NH4) 0.4%
[9] = second series, DAT42, NI/N (NH4) 0.4%
[10] = first series, DAT14, NI/N (NH4) 10%
[11] = first series, DAT28, NI/N (NH4) 10%
[12] = first series, DAT42, NI/N (NH4) 10%
[13] = second series, DAT7, NI/N (NH4) 0.8%
[14] = second series, DAT14, NI/N (NH4) 0.8%
[15] = second series, DAT28, NI/N (NH4) 0.8%
[16] = second series, DAT42, NI/N (NH4) 0.8%

Compound: 2-(3,4-dimethyl-1H-pyrazol-1-yl)succinic acid and 2-(4,5-dimethyl-1H-pyrazol-1-yl)succinic acid [DMPSA]
- Total N: total quantity of inorganic nitrogen (NH4 and NO3) in percolate [1]: 6.0 mg
- inhibition of nitrification in drip irrigation compared to DCD and Nitrapyrin ([2]; conclusion from tables 1 and 2): longer and stronger inhibition of nitrification
- % NH4 recovery of applied NH4 [2, 3]: 82%
- % nitrification inhibition [2, 3]: 74%
- % NH4 recovery of applied NH4 [2, 4]: 48%
- % nitrification inhibition [2, 4]: 59%
- % NH4 recovery of applied NH4 [2, 5]: 27%
- % nitrification inhibition [2, 5]: 34%
- effectiveness relative to DMPP ([2]; half amount of DMPSA gives comparable nitrification inhibition): almost twice effective as DMPP
- % NH4 recovery of applied NH4 [2, 6]: 82%
- % nitrification inhibition [2, 6]: 76%
- % NH4 recovery of applied NH4 [2, 7]: 73%
- % nitrification inhibition [2, 7]: 75%
- % NH4 recovery of applied NH4 [2, 8]: 61%
- % nitrification inhibition [2, 8]: 66%
- % NH4 recovery of applied NH4 [2, 9]: 63%
- % nitrification inhibition [2, 9]: 56%

Compound: N#CN=C(N)N [DCD, dicyandiamide]
- % NH4 recovery of applied NH4 [2, 10]: 63%
- % nitrification inhibition [2, 10]: 59%
- % NH4 recovery of applied NH4 [2, 11]: 13%
- % nitrification inhibition [2, 11]: 15%
- % NH4 recovery of applied NH4 [2, 12]: 0%
- % nitrification inhibition [2, 12]: 3%

Compound: Cc1c[nH]nc1C.O=P(O)(O)O [DMPP, 3,4-dimethyl pyrazole phosphate]
- Total N: total quantity of inorganic nitrogen (NH4 and NO3) in percolate [1]: 6.3 mg
- % NH4 recovery of applied NH4 [2, 13]: 75%
- % nitrification inhibition [2, 13]: 70%
- % NH4 recovery of applied NH4 [2, 14]: 71%
- % nitrification inhibition [2, 14]: 76%
- % NH4 recovery of applied NH4 [2, 15]: 64%
- % nitrification inhibition [2, 15]: 66%
- % NH4 recovery of applied NH4 [2, 16]: 66%
- % nitrification inhibition [2, 16]: 61%

Compound: Clc1cccc(C(Cl)(Cl)Cl)n1 [Nitrapyrin, 2-chloro-6-(trichloromethyl)pyridine]
- Total N: total quantity of inorganic nitrogen (NH4 and NO3) in percolate [1]: 7.1 mg
- % NH4 recovery of applied NH4 [2, 3]: 31%
- % nitrification inhibition [2, 3]: 33%
- % NH4 recovery of applied NH4 [2, 4]: 3%
- % nitrification inhibition [2, 4]: 4%
- % NH4 recovery of applied NH4 [2, 5]: 0%
- % nitrification inhibition [2, 5]: −2%
